Results published in patent US5776928A (priority 1995, dated 1998).

What was measured:
[1] = tested on: muscarinic cholinergic receptor; test: pharmacological studies, muscarinic cholinergic receptor activity
rats = test: in vivo observation in rats exposed to an overdose
clinical subjects = test: clinical observation of pupils in clinical subjects; type: in vivo
[2] = detection of radiolabelled compound in saliva; type: in vivo
Procedure: For example, in the treatment of adult humans, dosages of from about 0.25 to 50 mg, preferably from 1 to 30 mg, and most preferably 1 to 20 mg per day may be used. A once a day dosage is normally sufficient, although divided doses may be administered. For treatment of a dyskinesia, a dose range of from 1 to 30 mg, preferably 1 to 20 mg per day is suitable.

5-HT1C receptor = test: activity at the 5-HT1C receptor; conditions: anhydrous Form I

| SMILES | muscarinic cholinergic receptor activity [1] | salivation (rats) | pupilary effect (clinical subjects) | detection in the saliva [2] | activity at the 5-HT1C receptor (5-HT1C receptor) |
| --- | --- | --- | --- | --- | --- |
| Cc1cc2c(s1)Nc1ccccc1N=C2N1CCN(C)CC1 | has muscarinic cholinergic receptor activity | significant salivation | pupilary constriction rather than the expected pupilary dilation | can be detected in the saliva |  |
| Cc1cc2c(s1)Nc1ccccc1N=C2N1CCN(C)CC1 [anhydrous Form I compound] |  |  |  |  | active |
